Experiment [1] has as its target T1, MetQ (methionine-binding protein) (Neisseria meningitidis, UniProt Q9JPG4).
T1 construct: gene gna1946
Nature of the experiment: ITC; crystal structure at […] Å. (In general: In ITC the heat of successive injections is recorded.)

The target in experiment [2] is T2, MetQ (methionine-binding protein) (Neisseria meningitidis, UniProt Q9JPG4, N238A).
T2 construct: gene gna1946
T2 sequence (Q9JPG4 43-287 N238A): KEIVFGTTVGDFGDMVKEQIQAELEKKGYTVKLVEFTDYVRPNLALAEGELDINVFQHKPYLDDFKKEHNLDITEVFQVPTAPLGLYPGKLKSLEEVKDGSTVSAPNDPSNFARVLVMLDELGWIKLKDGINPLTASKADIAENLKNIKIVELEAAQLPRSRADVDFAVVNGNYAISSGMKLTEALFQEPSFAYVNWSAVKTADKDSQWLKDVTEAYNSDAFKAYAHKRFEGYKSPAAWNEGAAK
Nature of the experiment: ITC.

In experiment [3] the target is T1, MetQ (methionine-binding protein). As to the kind of experiment: ITC (displacement titration with D-methionine); crystal structure at […] Å.

By Kd is commonly meant the concentration at which binding is half-saturated. High values mean a looser complex, low ones a tighter complex. Turning to `CSCC[C@@H](N)C(=O)O` [D-methionine], the Kd in experiment [1] stood at 3.5 µM; in experiment [2], 240 µM.

Take `CSCC[C@H](N)C(=O)O` [L-methionine]: the results for the Kd in experiment [2] and in experiment [3] were 78 µM and 0.0002 µM, respectively.

(Values after article PMC6739813, “Structures of the Neisseria meningitides methionine‐binding protein MetQ in substrate‐free form and bound to L‐ and D‐methionine isomers” (Protein Science : A Publication of the Protein Society, 2019).)
